System: acetylated tubulin (Lys40) in HeLa cells
Test: Acetylated α-tubulin measurement in vitro (immunocytochemistry)
Type: cell-based
Settings: Homo sapiens, 6 hours incubation, acetylated tubulin (Lys40) by immunocytochemistry, read-out: IC50 (Tubulin deacetylation)
Protocol: HeLa cells were cultured in UltraCulture serum-free medium (Lonza) supplemented with 2 mM glutamine (Lonza). Assays were performed at 96-well or 384-well format, differences in assay protocols are detailed in Table 6. Cells per well were plated and incubated overnight at 37° C. overnight in a humidified atmosphere containing 5% CO2. Cell density and seeding volumes are detailed in Table 6. Compounds (dissolved in 100% DMSO) or DMSO (vehicle) were added manually by diluting them in culture medium at 10× final assay concentration and adding 10 μL to cells (96-well protocol). Alternatively, 50 nL compound was added directly to the cell culture using the Echo650 (Labcyte) (384-well protocol). In this assay, the final assay concentration of DMSO is 0.1%-0.4%. Trichostatin A (TSA) was used as a positive control. Cells were incubated with compounds at 37° C. in a humidified atmosphere containing 5% CO2 for 6 hours. Levels of acetylated tubulin (Lys40) were assessed by immunocytochemistry using target-specific antibodies. Cells were fixed with 4% PFA at RT as detailed in Table 6. After 2-3 wash steps with PBS, cells were permeabilized with 0.5% Triton in PBS at RT for 10 minutes followed by 1-2 washes with PBS. To avoid non-specific antibody staining, cells were blocked with 3% BSA in PBS at room temperature for 1 hour. […] Cells were washed 2-3 times with PBS and labelled for 1 h at RT with goat anti-mouse conjugated with Alexa 647 (Thermofisher) and goat anti-rabbit conjugated with Alexa 555 (Thermofisher) secondary antibodies, diluted in 1% BSA to a final concentration of 1:1000. Simultaneously, nuclei were stained with 1:10000-1:15000 Hoechst (Thermofisher). Incubation time and temperature of the primary antibodies are detailed in Table 6. Cells were washed 2-3 times with PBS and they were imaged with the Operetta CLS or Opera Phenix (PerkinElmer). Imaging is further detailed in Table 6. For imaging analysis, the Harmony analysis software (PerkinElmer) was used. Cytoplasmic (defined by total α-tubulin staining) intensities per well were used for α-tubulin (acetylated and total) quantification. Intensities were measured per cell and then averaged per well. Mean intensity levels of acetylated tubulin were normalized to the mean intensity levels of total tubulin. The changes in acetylated tubulin were normalized for each plate using GraphPad Prism software: tubulin acetylation in vehicle (DMSO)-treated cells were set to 0% while tubulin acetylation in TSA-treated cells were set to 100%. EC50 values were calculated using the log(inhibitor) vs. response—Variable slope (four parameters) nonlinear regression in GraphPad Prism software.

Compound	IC50 [nM]
O=C(CSc1nc2nc(C(F)(F)F)ccc2o1)c1ccc(CNC(=O)C2(O)CC2)s1 [Example 45, 1-hydroxy-N-((5-(2-((5-(trifluoromethyl)oxazolo[4,5-b]157yrrolid-2-yl)thio)acetyl)thiophen-2-yl)methyl)cyclopropane-1-carboxamide]	≤ 100
Cn1cc2c(SCC(=O)c3ccc(CNC(=O)C(O)C(F)(F)F)s3)nc(C(F)(F)F)nc2n1 (stereo not drawn) [Example 46, 3,3,3-trifluoro-2-hydroxy-N-((5-(2-((2-methyl-6-(trifluoromethyl)-2H-pyrazolo[3,4-d]pyrimidin-4-yl)thio)acetyl)thiophen-2-yl)methyl)propanamide]	100 to 500
O=C(CSc1nc(C(F)(F)F)nc2ccc(N3CCOCC3)cc12)c1ccc(CNC(=O)C2(O)CC2)s1 [Example 47, 1-hydroxy-N-((5-(2-((6-morpholino-2-(trifluoromethyl)quinazolin-4-yl)thio)acetyl)thiophen-2-yl)methyl)cyclopropane-1-carboxamide]	100 to 500
Cn1cc2c(SCC(=O)c3ccc(CNC(=O)C(C)(C)O)s3)nc(C(F)(F)F)nc2n1 [Example 48, 2-hydroxy-2-methyl-N-((5-(2-((2-methyl-6-(trifluoromethyl)-2H-pyrazolo[3,4-d]pyrimidin-4-yl)thio)acetyl)thiophen-2-yl)methyl)propanamide]	100 to 500
Cn1cc2c(SCC(=O)c3ccc(CNC(=O)C4(O)CC4)s3)nc(C(F)(F)F)nc2n1 [Example 49, 1-hydroxy-N-((5-(2-((2-methyl-6-(trifluoromethyl)-2H-pyrazolo[3,4-d]pyrimidin-4-yl)thio)acetyl)thiophen-2-yl)methyl)cyclopropane-1-carboxamide]	100 to 500
COc1ccc2nc(C)nc(SCC(=O)c3ccc(CNC(=O)C4(O)CC4)s3)c2c1 [Example 50, 1-hydroxy-N-((5-(2-((6-methoxy-2-methylquinazolin-4-yl)thio)acetyl)thiophen-2-yl)methyl)cyclopropane-1-carboxamide]	100 to 500
COc1ccc2nc(C)nc(SCC(=O)c3ccc(CNC(=O)C4CC4)s3)c2c1 [Example 51, N-((5-(2-((6-methoxy-2-methylquinazolin-4-yl)thio)acetyl)thiophen-2-yl)methyl)cyclopropanecarboxamide]	1000 to 3330
Cn1ncc2c(SCC(=O)c3ccc(CNC(=O)CO)s3)ncnc21 [Example 59, 2-hydroxy-N-((5-(2-((1-methyl-1H-pyrazolo[3,4-d]pyrimidin-4-yl)thio)acetyl)thiophen-2-yl)methyl)acetamide]	100 to 500
COc1ccc2nc(C)nc(SCC(=O)c3ccc(CNC(=O)CO)s3)c2c1 [Example 60, 2-Hydroxy-N-((5-(2-((6-methoxy-2-methylquinazolin-4-yl)thio)acetyl)thiophen-2-yl)methyl)acetamide]	100 to 500
Cn1cc2c(SCC(=O)c3ccc(CNC(=O)CO)s3)nc(C(F)(F)F)nc2n1 [Example 61, 2-hydroxy-N-((5-(2-((2-methyl-6-(trifluoromethyl)-2H-pyrazolo[3,4-d]pyrimidin-4-yl)thio)acetyl)thiophen-2-yl)methyl)acetamide]	≤ 100
CCc1nc(SCC(=O)c2ccc(CNC(=O)CO)s2)c2ccccc2n1 [Example 62, N-((5-(2-((2-ethylquinazolin-4-yl)thio)acetyl)thiophen-2-yl)methyl)-2-hydroxyacetamide]	100 to 500
O=C(CO)NCc1ccc(C(=O)CSc2nc(C(F)(F)F)nc3ccc(N4CCOCC4)cc23)s1 [Example 63]	100 to 500
Cc1nc(SCC(=O)c2ccc(CNC(=O)CO)s2)c2cccnc2n1 [Example 64, 2-hydroxy-N-((5-(2-((2-methylpyrido[2,3-d]pyrimidin-4-yl)thio)acetyl)thiophen-2-yl)methyl)acetamide]	≤ 100
Cc1nc(SCC(=O)c2ccc(CNC(=O)CO)s2)c2cn(C)nc2n1 [Example 65, N-((5-(2-((2,6-dimethyl-2H-pyrazolo[3,4-d]pyrimidin-4-yl)thio)acetyl)thiophen-2-yl)methyl)-2-hydroxyacetamide]	1000 to 3330
Cc1nc(SCC(=O)c2ccc(CNC(=O)CO)s2)c2ccccc2n1 [Example 66, 2-hydroxy-N-((5-(2-((2-methylquinazolin-4-yl)thio)acetyl)thiophen-2-yl)methyl)acetamide]	100 to 500
Cc1nc(SCC(=O)c2ccc(CNC(=O)CO)s2)c2cc(F)ccc2n1 [Example 67, N-((5-(2-((6-fluoro-2-methylquinazolin-4-yl)thio)acetyl)thiophen-2-yl)methyl)-2-hydroxyacetamide]	100 to 500
Cc1nc(SCC(=O)c2ccc(CNC(=O)CO)s2)c2ccc(F)cc2n1 [Example 68, N-((5-(2-((7-fluoro-2-methylquinazolin-4-yl)thio)acetyl)thiophen-2-yl)methyl)-2-hydroxyacetamide]	100 to 500
Cn1cc2c(SCC(=O)c3ccc(CNC(=O)CO)s3)nc(C(F)F)nc2n1 [Example 69, N-((5-(2-((6-(difluoromethyl)-2-methyl-2H-pyrazolo[3,4-d]pyrimidin-4-yl)thio)acetyl)thiophen-2-yl)methyl)-2-hydroxyacetamide]	100 to 500
COc1ccc2c(SCC(=O)c3ccc(CNC(=O)CO)s3)nc(C)nc2c1 [Example 70, 2-hydroxy-N-((5-(2-((7-methoxy-2-methylquinazolin-4-yl)thio)acetyl)thiophen-2-yl)methyl)acetamide]	100 to 500
O=C(CO)NCc1ccc(C(=O)CSc2nc3cc(C(F)(F)F)ncc3o2)s1 [Example 71, 2-hydroxy-N-((5-(2-((6-(trifluoromethyl)oxazolo[5,4-c]156yrrolid-2-yl)thio)acetyl)thiophen-2-yl)methyl)acetamide]	≤ 100
O=C(CO)NCc1ccc(C(=O)CSc2nc3nc(C(F)(F)F)ccc3o2)s1 [Example 72, 2-hydroxy-N-((5-(2-((5-(trifluoromethyl)oxazolo[4,5-b]156yrrolid-2-yl)thio)acetyl)thiophen-2-yl)methyl)acetamide]	≤ 100
Cc1nc(SCC(=O)c2ccc(CNC(=O)CO)s2)c2cc(Cl)c(F)cc2n1 [Example 73, N-((5-(2-((6-chloro-7-fluoro-2-methylquinazolin-4-yl)thio)acetyl)thiophen-2-yl)methyl)-2-hydroxyacetamide]	100 to 500
Cn1ncc2c(SCC(=O)c3ccc(CNC(=O)CO)s3)nc(C(F)(F)F)nc21 [Example 74, 2-hydroxy-N-((5-(2-((1-methyl-6-(trifluoromethyl)-1H-pyrazolo[3,4-d]pyrimidin-4-yl)thio)acetyl)thiophen-2-yl)methyl)acetamide]	100 to 500
Cc1nc(SCC(=O)c2ccc(CNC(=O)CO)s2)c2cc(C(F)(F)F)ccc2n1 [Example 76, 2-hydroxy-N-((5-(2-((2-methyl-6-(trifluoromethyl)quinazolin-4-yl)thio)acetyl)thiophen-2-yl)methyl)acetamide]	≤ 100
Cc1nc(SCC(=O)c2ccc(CNC(=O)CO)s2)c2cc(OC3CC3)ccc2n1 [Example 77, N-((5-(2-((6-cyclopropoxy-2-methylquinazolin-4-yl)thio)acetyl)thiophen-2-yl)methyl)-2-hydroxyacetamide]	100 to 500
Cc1nc(SCC(=O)c2ccc(CNC(=O)CO)s2)c2cc(NCC3CC3)ccc2n1 [Example 78, N-((5-(2-((6-((cyclopropylmethyl)amino)-2-methylquinazolin-4-yl)thio)acetyl)thiophen-2-yl)methyl)-2-hydroxyacetamide]	100 to 500
O=C(CO)NCc1ccc(C(=O)CSc2nc(C(F)(F)F)nc3nn(C4CC4)cc23)s1 [Example 79, N-((5-(2-((2-cyclopropyl-6-(trifluoromethyl)-2H-pyrazolo[3,4-d]pyrimidin-4-yl)thio)acetyl)thiophen-2-yl)methyl)-2-hydroxyacetamide]	≤ 100
COc1ccc2nc(C(F)(F)F)nc(SCC(=O)c3ccc(CNC(=O)CO)s3)c2c1 [Example 80, 2-hydroxy-N-((5-(2-((6-methoxy-2-(trifluoromethyl)quinazolin-4-yl)thio)acetyl)thiophen-2-yl)methyl)acetamide]	100 to 500
Cc1nc(SCC(=O)c2ccc(CNC(=O)CO)s2)c2cc(N3CCOCC3)ccc2n1 [Example 81, 2-hydroxy-N-((5-(2-((2-methyl-6-morpholinoquinazolin-4-yl)thio)acetyl)thiophen-2-yl)methyl)acetamide]	100 to 500
Cc1nc(SCC(=O)c2ccc(CNC(=O)CO)s2)c2cc(N3CCCCC3)ccc2n1 [Example 82, 2-hydroxy-N-((5-(2-((2-methyl-6-(piperidin-1-yl)quinazolin-4-yl)thio)acetyl)thiophen-2-yl)methyl)acetamide]	≤ 100
